Each block holds one compound with its values, some of them ahead of it.
Test system: 922993-354-T-J3-PDC complex spheroids, viability, % test/control
Experiment: Anticancer human tumor 922993-354-T-J3-PDC patient-derived endometrial carcinoma cell line growth inhibition [CLK]
Conditions: for IC50: curve of first compound; for viability, T/C: stronger effect = lower value
Procedure, shortened: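 Multi-cell-type spheroids combined patient-derived tumor cells with HUVEC endothelial cells and human mesenchymal stem cells. Paired agents were dosed in half-log steps down from about clinical Cmax, or from 10 microM where Cmax was unknown.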

[1] = second compound 0.0316 µM, first compound 0.0316 µM
[2] = second compound 0.0316 µM, first compound 0.1 µM
[3] = second compound 0.0316 µM, first compound 0.316 µM
[4] = second compound 0.0316 µM, first compound 1 µM
[5] = second compound 0.1 µM, first compound 0.0316 µM
[6] = second compound 0.1 µM, first compound 0.1 µM
[7] = second compound 0.1 µM, first compound 0.316 µM
[8] = second compound 0.1 µM, first compound 1 µM
[9] = second compound 0.316 µM, first compound 0.0316 µM
[10] = second compound 0.316 µM, first compound 0.1 µM
[11] = second compound 0.316 µM, first compound 0.316 µM
[12] = second compound 0.316 µM, first compound 1 µM
[13] = second compound 1 µM, first compound 0.0316 µM
[14] = second compound 1 µM, first compound 0.1 µM
[15] = second compound 1 µM, first compound 0.316 µM
[16] = second compound 1 µM, first compound 1 µM
[17] = second compound 3.16 µM, first compound 0.0316 µM
[18] = second compound 3.16 µM, first compound 0.1 µM
[19] = second compound 3.16 µM, first compound 0.316 µM
[20] = second compound 3.16 µM, first compound 1 µM
[21] = second compound 10 µM, first compound 0.0316 µM
[22] = second compound 10 µM, first compound 0.1 µM
[23] = second compound 10 µM, first compound 0.316 µM
[24] = second compound 10 µM, first compound 1 µM
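Note: spheroids exposed to the agents for 7 days before readout.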

IC50 (second compound 0.0316 µM): > 10000 nM | IC50 (second compound 0.1 µM): > 10000 nM | IC50 (second compound 0.316 µM): > 10000 nM | IC50 (second compound 1 µM): < 31.6 nM | IC50 (second compound 3.16 µM): < 31.6 nM | IC50 (second compound 10 µM): < 31.6 nM
Structure (SMILES): CC(=O)O[C@H]1C(=O)[C@@]2(C)[C@H]([C@H](OC(=O)c3ccccc3)[C@]3(O)C[C@H](OC(=O)[C@H](O)[C@@H](NC(=O)c4ccccc4)c4ccccc4)C(C)=C1C3(C)C)[C@]1(OC(C)=O)CO[C@@H]1C[C@@H]2O + CNC(=O)c1ccc(Nc2nc(OC3CCCC3)c3c(-c4ccc5nc(C)oc5c4)c[nH]c3n2)c(OC)c1
viability, T/C [1]: 113% | viability, T/C [2]: 104% | viability, T/C [3]: 99.3% | viability, T/C [4]: 99.2% | viability, T/C (second compound 0.0316 µM, first compound 3.16 µM): 69.3% | viability, T/C (second compound 0.0316 µM, first compound 10 µM): 51% | viability, T/C [5]: 101% | viability, T/C [6]: 92.1% | viability, T/C [7]: 104% | viability, T/C [8]: 77.1% | viability, T/C (second compound 0.1 µM, first compound 3.16 µM): 61.2% | viability, T/C (second compound 0.1 µM, first compound 10 µM): 51.8% | viability, T/C [9]: 60.2% | viability, T/C [10]: 59% | viability, T/C [11]: 66.8% | viability, T/C [12]: 73.2% | viability, T/C (second compound 0.316 µM, first compound 3.16 µM): 79.7% | viability, T/C (second compound 0.316 µM, first compound 10 µM): 68.1% | viability, T/C [13]: 42.6% | viability, T/C [14]: 46% | viability, T/C [15]: 44.7% | viability, T/C [16]: 45.9% | viability, T/C (second compound 1 µM, first compound 3.16 µM): 51.1% | viability, T/C (second compound 1 µM, first compound 10 µM): 47.1% | viability, T/C [17]: 34.6% | viability, T/C [18]: 41.4% | viability, T/C [19]: 35.8% | viability, T/C [20]: 44.3% | viability, T/C (second compound 3.16 µM, first compound 3.16 µM): 42.6% | viability, T/C (second compound 3.16 µM, first compound 10 µM): 39.9% | viability, T/C [21]: 35.4% | viability, T/C [22]: 39.2% | viability, T/C [23]: 40.2% | viability, T/C [24]: 37.4% | viability, T/C (second compound 10 µM, first compound 3.16 µM): 44.9% | viability, T/C (second compound 10 µM, first compound 10 µM): 36.1%

IC50 (second compound 0.0316 µM): 19.5 nM | IC50 (second compound 0.1 µM): 22.9 nM | IC50 (second compound 0.316 µM): 16.6 nM | IC50 (second compound 1 µM): < 3.16 nM | IC50 (second compound 3.16 µM): < 3.16 nM | IC50 (second compound 10 µM): < 3.16 nM
Structure (SMILES): CCc1c2c(nc3ccc(O)cc13)-c1cc3c(c(=O)n1C2)COC(=O)[C@]3(O)CC + CNC(=O)c1ccc(Nc2nc(OC3CCCC3)c3c(-c4ccc5nc(C)oc5c4)c[nH]c3n2)c(OC)c1
viability, T/C (second compound 0.0316 µM, first compound 0.00316 µM): 101% | viability, T/C (second compound 0.0316 µM, first compound 0.01 µM): 85.3% | viability, T/C [1]: 24.8% | viability, T/C [2]: 15.1% | viability, T/C [3]: 22.3% | viability, T/C [4]: 25.9% | viability, T/C (second compound 0.1 µM, first compound 0.00316 µM): 99.2% | viability, T/C (second compound 0.1 µM, first compound 0.01 µM): 79.2% | viability, T/C [5]: 40.6% | viability, T/C [6]: 15.1% | viability, T/C [7]: 20.7% | viability, T/C [8]: 29.9% | viability, T/C (second compound 0.316 µM, first compound 0.00316 µM): 64.2% | viability, T/C (second compound 0.316 µM, first compound 0.01 µM): 63.4% | viability, T/C [9]: 32.6% | viability, T/C [10]: 16% | viability, T/C [11]: 21.4% | viability, T/C [12]: 31.4% | viability, T/C (second compound 1 µM, first compound 0.00316 µM): 32.1% | viability, T/C (second compound 1 µM, first compound 0.01 µM): 39.8% | viability, T/C [13]: 13.2% | viability, T/C [14]: 13.6% | viability, T/C [15]: 20.3% | viability, T/C [16]: 18.5% | viability, T/C (second compound 3.16 µM, first compound 0.00316 µM): 34.4% | viability, T/C (second compound 3.16 µM, first compound 0.01 µM): 28.1% | viability, T/C [17]: 14.6% | viability, T/C [18]: 13.8% | viability, T/C [19]: 17.4% | viability, T/C [20]: 17.7% | viability, T/C (second compound 10 µM, first compound 0.00316 µM): 30% | viability, T/C (second compound 10 µM, first compound 0.01 µM): 21.8% | viability, T/C [21]: 12.6% | viability, T/C [22]: 14.6% | viability, T/C [23]: 16.5% | viability, T/C [24]: 17.6%
